Measured values reported in patent US7312213B2, “Substituted benzo[e][1,4]oxazino[3,2-g]isoindole compounds” (Les Laboratories Servier, priority 2002, dated 2007).
Where a name gives a salt, the structure may show the parent alone.

What was measured:
DU145 prostate carcinoma = experiment: In vitro cytotoxicity, human solid tumour cell line DU145; assay type: cell-based; conditions: DU-145, 96 h, incubation 4 days
Procedure: (§1) L1210 murine leukaemia was used in vitro. The cells are cultured in RPMI 1640 complete culture medium containing 10% foetal calf serum, 2 mM glutamine, 50 units/ml of penicillin, 50 μg/ml of streptomycin and 10 mM Hepes, pH=7.4. The cells are distributed on microplates and are exposed to the cytotoxic compounds for 4 doubling periods, or 48 hours. The number of viable cells is then quantified by a colorimetric assay, the Microculture Tetrazolium Assay (J. Carmichael et al., Cancer Res.; 47, 939-942 (1987)). The results are expressed as the IC50, the concentration of cytotoxic agent that inhibits the proliferation of the treated cells by 50%.
(§2) The compounds of the invention were also tested on human cell lines originating from solid tumours, in accordance with the same test protocol as that described for L1210 murine leukaemia but with incubation periods of 4 days instead of 2 days.

[1] = system: KB-3-1 epidermoid carcinoma; experiment: In vitro cytotoxicity, human solid tumour cell line KB-3-1; assay type: cell-based; conditions: 96 h, incubation 4 days
Procedure: as §1, §2

L1210 murine leukaemia = experiment: In vitro cytotoxicity, L1210 murine leukaemia (Microculture Tetrazolium Assay); assay type: cell-based; conditions: Mus musculus; L1210, 48 hours exposure (4 doubling periods); read-out: IC50, concentration of cytotoxic agent that inhibits the proliferation of the treated cells by 50%
Procedure: as §1

HT-29 colon carcinoma = experiment: In vitro cytotoxicity, human solid tumour cell line HT-29; assay type: cell-based; conditions: 96 h, incubation 4 days
Procedure: as §1, §2

[2] = system: A549 non-small-cell lung carcinoma; experiment: In vitro cytotoxicity, human solid tumour cell line A549; assay type: cell-based; conditions: 96 h, incubation 4 days
Procedure: as §1, §2

Row | SMILES | melting point | other results
1 | CN(C)CCn1c(=O)c2c3cc(O)ccc3c3c(oc4ccccc4n3C(=O)OC(C)(C)C)c2c1=O [Example 1, 8-(tert-Butoxycarbonyl)-2-[2-(dimethylamino)ethyl]-5-hydroxy-2,3-dihydrobenzo[a]pyrrolo[3,4-c]phenoxazine-1,3-dione] | 190 °C (dec.) | 
2 | CN(C)CCn1c(=O)c2c3cc(O)ccc3c3[nH]c4ccccc4oc3c2c1=O [Example 2, 2-[2-(Dimethylamino)ethyl]-5-hydroxybenzo[a]pyrrolo[3,4-c]phenoxazine-1,3-dione hydrochloride] |  | IC50 (DU145 prostate carcinoma): 270 nM; IC50 [1]: 260 nM; IC50 (L1210 murine leukaemia): 250 nM; IC50 (HT-29 colon carcinoma): 600 nM; IC50 [2]: 160 nM
3 | CN(C)CCn1c(=O)c2c3cc(OCCO)ccc3c3c(oc4ccccc4n3C(=O)OC(C)(C)C)c2c1=O [Example 3, 8-(tert-Butoxycarbonyl)-2-[2-(dimethylamino)ethyl]-5-(2-hydroxy-ethoxy)-2,3-dihydrobenzo[a]pyrrolo [3,4-c]phenoxazine-1,3-dione] | > 80 °C (dec.) | 

More lines, main results first:

Row | melting point | SMILES | other results
4 | 216 °C | CN(C)CCn1c(=O)c2c3cc(OCCO)ccc3c3[nH]c4ccccc4oc3c2c1=O [Example 6, 2-[2-(Dimethylamino)ethyl]-5-(2-hydroxyethoxy)benzo-[a]pyrrolo[3,4-c]phenoxazine-1,3-dione] | 
5 | 202 °C | CN(C)CCn1c(=O)c2c3cc(OCCO)ccc3c3c(oc4ccccc4n3C=O)c2c1=O [Example 7, 8-(Formyl)-2-[2-(dimethylamino)ethyl]-5-(2-hydroxyethoxy)-benzo[a]pyrrolo[3,4-c]phenoxazine-1,3-dione] | 
6 | 250 °C | Cn1c(=O)c2c3cc(OCCO)ccc3c3c(oc4cccnc4n3C(=O)Oc3ccccc3)c2c1=O [Example 8, 8-(Phenoxycarbonyl)-5-(2-hydroxyethoxy)-2-methyl-2,3-dihydrobenzo[e]pyrido[2′,3′:5,6][1,4]oxazino[3,2-g]isoindole-1,3-dione] | 
